The target of assay [1] is Delta-type opioid receptor (Rattus norvegicus, UniProt P33533). Description: Binding activity against Opioid receptor delta 1 using [3H]DADLE as radioligand in rat brain membranes. Format: cell membranes.
Assay [2] deals with Mu-type opioid receptor (Cavia porcellus, UniProt P97266). The assay is described as follows: Inhibition of [35S]GTP-gamma-S, binding in guinea pig caudate stimulated by DAMGO (Opioid receptor mu 1). The format is functional. For orientation: GTPγS is a poorly hydrolysed GTP analogue; its binding reports G protein activation.
Assay [3] deals with T1, Kappa-type opioid receptor (Cavia porcellus, UniProt P41144). Description: Inhibition of [35S]GTP-gamma-S, binding in guinea pig caudate stimulated by U69,593 in Opioid receptor kappa 1. Format: functional.
Assay [4] has as its target T1, Kappa-type opioid receptor. Description: Binding activity against kOpioid receptor kappa 1 using [3H]U-69593 as radioligand in guinea pig membranes. The format is cell membranes.
For assay [5], the target named is Mu-type opioid receptor (Rattus norvegicus, UniProt P33535). The assay is described as follows: Binding activity against Opioid receptor mu 1 using [3H]DAMGO as radioligand in rat brain membranes. The format is cell membranes.
For assay [6], the target named is Kappa-type opioid receptor (Homo sapiens, UniProt P41145). The assay is described as follows: Binding affinity against Opioid receptor kappa 1 using [3H]ethylketocyclazocine as radioligand.
The target of assay [7] is Mu-type opioid receptor (Homo sapiens, UniProt P35372). The assay is described as follows: Binding affinity against Opioid receptor mu 1 using [3H]naloxone as radioligand.
Assay [8] concerns the target T1, Kappa-type opioid receptor. The assay is described as follows: Binding activity against Opioid receptor kappa 1 using [3H]U-69593 as radioligand in guinea pig membranes. Format: cell membranes.

Molecules are shown by their SMILES.

As a reminder, the Ki is a measure of affinity in units of concentration, obtained from inhibition or displacement. Low readings indicate a stronger hold on the target, high ones a looser hold on the target.

T1 sequence (P41144 whole entry): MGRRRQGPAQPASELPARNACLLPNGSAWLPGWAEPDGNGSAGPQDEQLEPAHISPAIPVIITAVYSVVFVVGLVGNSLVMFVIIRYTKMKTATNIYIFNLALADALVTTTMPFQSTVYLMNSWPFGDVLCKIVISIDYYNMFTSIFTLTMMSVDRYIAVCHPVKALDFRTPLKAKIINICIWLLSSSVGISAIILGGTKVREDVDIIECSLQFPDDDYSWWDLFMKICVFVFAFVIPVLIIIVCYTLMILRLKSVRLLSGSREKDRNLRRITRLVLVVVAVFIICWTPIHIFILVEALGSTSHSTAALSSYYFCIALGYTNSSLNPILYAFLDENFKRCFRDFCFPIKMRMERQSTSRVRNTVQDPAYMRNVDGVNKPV
Sequence of Mu-type opioid receptor (Rattus norvegicus, UniProt P33535) (P33535 whole entry): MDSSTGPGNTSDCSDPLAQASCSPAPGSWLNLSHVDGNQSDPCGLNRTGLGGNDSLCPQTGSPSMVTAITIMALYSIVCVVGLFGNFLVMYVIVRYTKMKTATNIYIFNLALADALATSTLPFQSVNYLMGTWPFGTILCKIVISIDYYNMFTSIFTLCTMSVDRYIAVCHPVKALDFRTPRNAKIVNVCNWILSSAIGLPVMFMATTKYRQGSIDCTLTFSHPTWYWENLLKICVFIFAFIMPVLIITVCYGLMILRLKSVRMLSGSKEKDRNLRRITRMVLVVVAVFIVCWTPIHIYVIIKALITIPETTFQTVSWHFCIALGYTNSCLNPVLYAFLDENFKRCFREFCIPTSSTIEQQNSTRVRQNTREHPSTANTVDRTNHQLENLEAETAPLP
Sequence of Delta-type opioid receptor (P33533 whole entry): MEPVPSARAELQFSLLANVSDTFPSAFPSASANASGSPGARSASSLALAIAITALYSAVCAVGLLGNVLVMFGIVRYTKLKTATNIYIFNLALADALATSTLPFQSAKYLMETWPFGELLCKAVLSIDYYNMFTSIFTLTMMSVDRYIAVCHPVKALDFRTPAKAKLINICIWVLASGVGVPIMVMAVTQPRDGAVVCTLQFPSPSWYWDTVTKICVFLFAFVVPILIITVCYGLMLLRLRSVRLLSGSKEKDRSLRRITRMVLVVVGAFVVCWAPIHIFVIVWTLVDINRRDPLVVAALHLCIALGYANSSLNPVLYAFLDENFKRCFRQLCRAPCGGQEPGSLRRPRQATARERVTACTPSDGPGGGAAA
Sequence of Mu-type opioid receptor (Cavia porcellus, UniProt P97266) (P97266 whole entry): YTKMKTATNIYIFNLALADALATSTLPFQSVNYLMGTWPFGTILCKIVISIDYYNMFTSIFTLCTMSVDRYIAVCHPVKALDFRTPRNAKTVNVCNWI
Sequence of Mu-type opioid receptor (Homo sapiens, UniProt P35372) (P35372 whole entry): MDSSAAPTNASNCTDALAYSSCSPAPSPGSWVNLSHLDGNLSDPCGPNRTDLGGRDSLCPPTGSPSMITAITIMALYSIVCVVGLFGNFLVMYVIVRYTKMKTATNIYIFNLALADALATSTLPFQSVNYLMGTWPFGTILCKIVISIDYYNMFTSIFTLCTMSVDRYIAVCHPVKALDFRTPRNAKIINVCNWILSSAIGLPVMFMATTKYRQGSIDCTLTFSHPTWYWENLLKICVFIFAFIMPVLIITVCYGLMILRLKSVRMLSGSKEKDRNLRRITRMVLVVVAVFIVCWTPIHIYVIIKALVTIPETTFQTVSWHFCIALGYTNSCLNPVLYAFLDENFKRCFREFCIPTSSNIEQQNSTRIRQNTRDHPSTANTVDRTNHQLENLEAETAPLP
Sequence of Kappa-type opioid receptor (Homo sapiens, UniProt P41145) (P41145 whole entry): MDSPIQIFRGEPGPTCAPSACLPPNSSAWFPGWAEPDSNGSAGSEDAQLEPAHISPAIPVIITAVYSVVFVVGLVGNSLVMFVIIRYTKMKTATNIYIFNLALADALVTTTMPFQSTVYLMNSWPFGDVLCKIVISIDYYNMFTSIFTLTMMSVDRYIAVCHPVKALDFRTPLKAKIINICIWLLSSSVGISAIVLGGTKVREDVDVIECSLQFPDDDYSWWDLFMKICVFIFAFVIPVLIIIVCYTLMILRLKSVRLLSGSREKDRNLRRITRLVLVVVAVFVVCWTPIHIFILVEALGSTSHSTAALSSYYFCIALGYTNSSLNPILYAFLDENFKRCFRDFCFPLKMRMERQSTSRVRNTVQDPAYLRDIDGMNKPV

With `C[C@H]1C2CCCC1(c1cccc(O)c1)CCN2CCc1ccccc1` (some centres not stated), the Ki in assay [1] is 0.272 µM; at Mu-type opioid receptor [2], 0.000338 µM; in assay [3], 0.00134 µM; in assay [4] it was 0.0145 µM; at Mu-type opioid receptor [5] it was 0.00311 µM.

For `C[C@H]1CN(C)CC[C@@]1(C)c1cccc(O)c1`, the inhibition constant (Ki) turned out to be 0.833 µM in assay [6] and 0.08 µM at Mu-type opioid receptor [7].

As to `C[C@H]1C2CCCC1(c1cccc(O)c1)CCN2C` (some centres not stated), the Ki was greater than 10 µM in assay [1]; 0.0213 µM on Mu-type opioid receptor [2]; 0.105 µM in assay [3]; 0.816 µM in assay [8]; 0.166 µM at Mu-type opioid receptor [5].

These data come from ChEMBL document CHEMBL1131144, “N-Substituted 9beta-methyl-5-(3-hydroxyphenyl)morphans are opioid receptor pure antagonists” (J Med Chem, 1998).
